For data set [1], the target named is T1, recombinant, human protein tyrosine phosphatase (PTP) 1B (hPTP1B) (Homo sapiens, UniProt P18031).
T1 construct: made in house
T1 sequence (P18031 1-435): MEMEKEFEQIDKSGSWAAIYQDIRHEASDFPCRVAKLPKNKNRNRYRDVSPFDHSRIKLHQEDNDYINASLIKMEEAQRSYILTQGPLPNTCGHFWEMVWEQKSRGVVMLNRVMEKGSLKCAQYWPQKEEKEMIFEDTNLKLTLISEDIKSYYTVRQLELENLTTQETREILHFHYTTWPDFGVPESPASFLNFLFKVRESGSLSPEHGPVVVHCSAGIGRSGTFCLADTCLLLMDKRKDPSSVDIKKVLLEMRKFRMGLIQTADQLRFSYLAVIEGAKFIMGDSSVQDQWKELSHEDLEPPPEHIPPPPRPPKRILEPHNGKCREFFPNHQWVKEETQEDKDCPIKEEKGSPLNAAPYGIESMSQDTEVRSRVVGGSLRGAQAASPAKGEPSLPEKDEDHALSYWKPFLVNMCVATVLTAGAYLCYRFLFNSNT
Kind of data set: Inhibition of tri-phosphorylated insulin receptor dodecaphosphopeptide dephosphorylation by hPTP1B. It is filed as biochemical. As to conditions: 50 μM IR triphosphopeptide substrate, 5 min preincubation and 5 min reaction at 37° C., malachite green-ammonium molybdate phosphate detection.

The text below walks through data of patent US7008636B2, “2,3,5-substituted biphenyls useful in the treatment of insulin resistance and hyperglycemia” (Wyeth, priority 1998, dated 2006).

Consider `CCCCCCCCCCCCNC(=O)c1cc(Br)c(OCCNC(N)=O)c(-c2cccc(C(F)(F)F)c2)c1` [Example 187, 5-Bromo-3′-trifluoromethyl-6-(2-ureido-ethoxy)-biphenyl-3-carboxylic acid dodecylamide], for which the melting point lay within 122.5 to 125.1 °C.

The compound `COc1ccc(-c2cc(-c3ccc(C(=O)NCCCCCCCc4ccccc4)cc3)cc(-c3ccc(OC)cc3)c2OCc2ccc(C(=O)O)cc2)cc1` (hydrate or solvate) [Example 133] had a melting point of 140 to 142 °C.

For `O=C(O)COc1c(Br)cc(C(=O)NCCCCCCCCc2ccccc2)cc1-c1ccccc1F` [Example 77, [3-Bromo-2′-fluoro-5-(8-phenyl-octylcarbamoyl)-biphenyl-2-yloxy]acetic acid], the melting point is > 79 °C (dec.).

Turning to `CCCCCCCCCCCCNC(=O)c1cc(Br)c(OCC(=O)O)c(-c2cccc(Cl)c2)c1` [Example 34, (3-Bromo-3′-chloro-5-dodecylcarbamoyl-biphenyl-2-yloxy)-acetic acid], the melting point is > 100 °C (dec.).

With `O=C(O)COc1c(Br)cc(C(=O)NCCc2ccccn2)cc1-c1ccccc1F` [Example 72, [3-Bromo-2′-fluoro-5-(2-pyridin-2-yl-ethylcarbamoyl)-biphenyl-2-yloxy]acetic acid], the melting point is > 154 °C (dec.).

As to `O=C(O)CCCCOc1c(-c2cccc(Cl)c2)cc(C(=O)NCCCCCCCCn2ccc3ccccc32)cc1-c1cccc(Cl)c1` [Example 164, 5-[3,3″-Dichloro-5′-(8-indol-1-yl-octylcarbamoyl)-[1,1′;3′,1″]terphenyl-2′-yloxy]-pentanoic acid], the IC50 in data set [1] is 191 nM.

In the case of `O=C(O)COc1c(-c2cccc(Cl)c2)cc(C(=O)NCCCCCCCCOc2ccc(F)cc2F)cc1-c1cccc(Cl)c1` [Example 120, {3,3″-Dichloro-5′-[8-(2,4-difluoro-phenoxy)-octylcarbamoyl]-[1,1′;3′,1″]terphenyl-2′-yloxy}-acetic acid], in data set [1], the half-maximal inhibitory concentration (IC50) stood at 53 nM.

As for `COCOc1c(-c2cccc(C=O)c2)cc(C(=O)NCCCCCCCc2ccccc2)cc1-c1cccc(C=O)c1` [Example 149, 3,3″-Diformyl-2′-methoxymethoxy-[1,1′:3′,1″]terphenyl-5′-carboxylic acid (7-phenyl-heptyl)-amide], in data set [1], the IC50 was 405 nM.

On to `CN(CCCCCCCCc1ccccc1)C(=O)c1cc(Br)c(OCC(=O)O)c(-c2cccc(C(F)(F)F)c2)c1` [Example 212, {3-Bromo-5-[methyl-(8-phenyl-octyl)-carbamoyl]-3′-trifluoromethyl-biphenyl-2-yloxy]-acetic acid], for which the IC50 in data set [1] was 272 nM.

Regarding `O=C(NCCCCCCCCc1ccccc1)c1cc(Br)c(OS(=O)(=O)c2ccc(C(=O)O)c(O)c2)c(-c2cccc(C(F)(F)F)c2)c1` [Example 195, 4-[3-Bromo-5-(8-phenyl-octylcarbamoyl)-3′-trifluoromethyl-biphenyl-2-yloxysulfonyl]-2-hydroxy-benzoic acid], the 50% inhibitory concentration (IC50) in data set [1] was determined as 73 nM.

Regarding `O=C(NCCCCCCCCc1ccccc1)c1cc(-c2cccc(C(F)(F)F)c2)c(OS(=O)(=O)c2ccc(C(=O)O)c(O)c2)c(-c2cccc(C(F)(F)F)c2)c1` [Example 203, 2-Hydroxy-4-[5′-(8-phenyl-octylcarbamoyl)-3,3″-bis-trifluoromethyl-[1,1′:3′1″]terphenyl-2′-yloxysulfonyl]-benzoic acid], the half-maximal inhibitory concentration (IC50) in data set [1] came out at 50 nM.

In the case of `CCCCCCCCCCCCNC(=O)c1cc(Br)c(OCC(=O)O)c(-c2cccc(C(F)(F)F)c2)c1` [Example 176, (3-Bromo-5-dodecylcarbamoyl-3′-trifluoromethyl-biphenyl-2-yloxy)-acetic acid], in data set [1], the IC50 came to 121 nM.

Turning to `O=C(O)COCCOc1c(-c2cccc(Cl)c2)cc(C(=O)NCCCCCCCCn2ccc3ccccc32)cc1-c1cccc(Cl)c1` [Example 168, {2-[3,3″-Dichloro-5′-(8-indol-1-yl-octylcarbamoyl)-[1,1′:3′,1″]terphenyl-2′-yloxy]-ethoxy}acetic acid], the IC50 in data set [1] stood at 77 nM.

In the case of `CCCCCCCCCCCCNC(=O)c1cc(-c2ccc(OC)cc2)c(OCC(=O)O)c(-c2cccc(C(F)(F)F)c2)c1` [Example 154, (5′-Dodecylcarbamoyl-4″-methoxy-3-trifluoromethyl-[1,1′;3′1″]terphenyl-2′-yloxy)acetic acid], the half-maximal inhibitory concentration (IC50) in data set [1] is 129 nM.

For the compound `CCCCCCCCCCCCNC(=O)c1cc(-c2cccc(C(F)(F)F)c2)c(OCC(=O)O)c(-c2ccccc2F)c1` [Example 109, (5′-Dodecylcarbamoyl-2″-fluoro-3-trifluoromethyl-[1,1′;3′,1″]terphenyl-2′-yloxy)-acetic acid], in data set [1], the half-inhibitory concentration (IC50) turned out to be 187 nM.

On to `O=C(O)COc1c(-c2cccc(Cl)c2)cc(C(=O)NCCCCCCCCCCCCOc2ccc(F)cc2F)cc1-c1cccc(Cl)c1` [Example 121, {3,3″-Dichloro-5′-[12-(2,4-difluoro-phenoxy)-dodecylcarbamoyl]-[1,1′;3′,1″]terphenyl-2′-yloxy}-acetic acid], for which the IC50 in data set [1] was determined as 15 nM.

Regarding `O=C(O)COc1c(-c2cccc(Cl)c2)cc(C(=O)NCCCCCCCCOCc2ccc(C(F)(F)F)cc2)cc1-c1cccc(Cl)c1` [Example 122, {3,3″-Dichloro-5′-[8-(4-trifluoromethyl-benzyloxy)-octylcarbamoyl]-[1,1′;3′,1″]terphenyl-2′-yloxy}-acetic acid], the IC50 in data set [1] was 92 nM.

`CCCCCCCCCCCCNC(=O)c1cc(Br)c(OCC(=O)O)c(-c2ccc(F)c(Cl)c2)c1` [Example 135, (3-Bromo-3′-chloro-5-dodecylcarbamoyl-4′-fluoro-biphenyl-2-yloxy)acetic acid]: the IC50 in data set [1] turned out to be 130 nM.

Take `O=C(NCCCCCCCCc1ccccc1)c1cc(Br)c(O)c(-c2cccc(C(=O)OCCCCCl)c2)c1` [Example 152, 3′-Bromo-2′-hydroxy-5′-(8-phenyl-octylcarbamoyl)-biphenyl-3-carboxylic acid 4-chloro-butyl ester]: the IC50 in data set [1] was 396 nM.

As to `O=C(NCCCCCCCCc1ccccc1)c1ccc(OS(=O)(=O)c2ccc(C(=O)O)c(O)c2)c(Br)c1` [Example 210, 4-[2-Bromo-4-(8-phenyl-octylcarbamoyl)-phenoxysulfonyl]-2-hydroxy-benzoic acid], the IC50 in data set [1] came out at 530 nM.

On to “[[4,4′-Dimethoxy-5′-[4-[[(7-phenylheptyl)amino]carbonyl]phenyl][1,1′:3′,1-terphenyl]-2′-yl]oxy]acetic acid [Example 131]”, for which the concentration for half-maximal inhibition (IC50) in data set [1] was 124 nM.

For `O=C(O)COc1c(-c2ccc(F)c(Cl)c2)cc(C(=O)NCCCCCCCCc2ccccc2)cc1-c1ccc(F)c(Cl)c1` [Example 25, [3,3″-Dichloro-4-4″difluoro-5′-(8-phenyl-octylcarbamoyl)[-1,1′;3′,1″]terphenyl-2′-yloxy]-acetic acid], the half-inhibitory concentration (IC50) in data set [1] was determined as 123 nM.

In the case of `CCCCCCCCCCCCNC(=O)c1cc(-c2cccc(Cl)c2)c(OCC(=O)O)c(-c2ccccc2F)c1` [Example 114, (3″-Chloro-5′-dodecylcarbamoyl-2-fluoro-[1,1′;3′,1″]terphenyl-2′-yloxy)-acetic acid], in data set [1], the 50% inhibitory concentration (IC50) came out at 55 nM.

In the case of `O=C(O)CCCCCCOc1c(-c2cccc(C(F)(F)F)c2)cc(C(=O)NCCCCCCCCc2ccccc2)cc1-c1cccc(C(F)(F)F)c1` [Example 196, 7-[5′-(8-Phenyl-octylcarbamoyl)-3,3″-bistrifluoromethyl-[1,1′;3′,1″]terphenyl-2′-yloxy]-heptanoic acid], the 50% inhibitory concentration (IC50) in data set [1] was 150 nM.

For the compound `CCCCCCCCCCOc1cc(-c2ccccc2)c(OCC(=O)O)c(-c2ccccc2)c1` [Example 172, (5′-Decyloxy-[1,1′;3′,1″]terphenyl-2′-yloxy)acetic acid], the IC50 in data set [1] worked out at 154 nM.

As to “Ammonium molybdate tetrahydrate [reference compound]”, in data set [1], the IC50 was determined as 8700 nM.

As to `Cc1cc(C)cc(-c2cc(C(=O)NCCCCCCCCc3ccccc3)cc(-c3cc(C)cc(C)c3)c2OCC(=O)O)c1` [Example 141, [3,5,3″,5″-Tetramethyl-5′-(8-phenyl-octylcarbamoyl)-[1,1′:3′,1″]terphenyl-2′-yloxy]acetic acid], the IC50 in data set [1] was found to be 71 nM.

As for `O=C(O)COc1c(-c2cccc(Cl)c2)cc(C(=O)NCCCCCCCC[S+]([O-])c2ccc(Cl)cc2)cc1-c1cccc(Cl)c1` (stereo not drawn) [Example 119, {3,3″-Dichloro-5′-[8-(4-chloro-benzenesulfinyl)-octylcarbamoyl]-[1,1′;3′,1″]terphenyl-2′-yloxy}-acetic acid], the half-maximal inhibitory concentration (IC50) in data set [1] worked out at 627 nM.

As for `O=C(O)COc1c(-c2cccc(Cl)c2)cc(C(=O)NCCCCCCCCc2ccccc2)cc1-c1ccccc1F` [Example 115, [3″-Chloro-2-fluoro-5′-(8-phenyl-octylcarbamoyl)-[1,1′;3′,1″]terphenyl-2′-yloxy]-acetic acid], the IC50 in data set [1] came out at 287 nM.

“[[5′-[4-[[(7-Phenylheptyl)amino]carbonyl]phenyl]-3,3′-bis(trifluoromethyl)[1,1′:3′,1′-terphenyl]-2′-yl]oxy]acetic acid [Example 132]”: the IC50 in data set [1] amounted to 84 nM.

For the compound `CCCCCCCCCCCCNC(=O)c1cc(Br)c(OCC(=O)O)c(-c2ccc(OC)cc2)c1` [Example 31, (3-Bromo-5-dodecylcarbamoyl-4′-methoxy-biphenyl-2-yloxy)-acetic acid], the IC50 in data set [1] was 203 nM.

Take `CCCCCCCCCCCCCc1cc(-c2ccccc2)c(OCC(=O)O)c(-c2ccccc2)c1` [Example 171, (5′-Tridecyl-[1,1′;3′,1″]terphenyl-2′-yloxy)acetic acid]: in data set [1], the concentration for half-maximal inhibition (IC50) turned out to be 18 nM.

`CCCCCCCCCCCCNC(=O)c1cc(-c2cccc(Cl)c2)c(OCCOCC(=O)O)c(-c2cccc(Cl)c2)c1` [Example 12]: the half-maximal inhibitory concentration (IC50) in data set [1] worked out at 15 nM.

The term melting point denotes the temperature of the solid-liquid transition. One may read the IC50 as the midpoint of a concentration-inhibition curve.
